# Test results from patent US7799811B2, “Agent for prevention and treatment of cancer comprising oxadiazole urea compound obstructing activity of stat” (Korea Research Institute of Bioscience and Biotechnology, priority 2006, dated 2010).
# Tests used:
# [1] = target: T1, STAT3 (Homo sapiens, UniProt P40763); experiment: dual luciferase assay for STAT3 inhibitory activity in transfected HCT116 cells; assay type: cell-based; conditions: HCT116 cells transfected with STAT3-dependent firefly luciferase; 12 hrs or 24 hrs; read-out: concentration inhibiting 50% of STAT3 activity
# T1 construct: Colorectal carcinoma HCT116 cells were co-transfected with a plasmid carrying firefly luciferase, whose expression increases with STAT3 activity; endogenous in cells; host or cells: HCT116 human colorectal carcinoma cells
# Experimental: A dual luciferase assay was performed to determine whether the oxadiazole urea compound of the present invention has inhibitory activity against STAT3.
# Colorectal carcinoma HCT116 cells were co-transfected with a plasmid carrying firefly luciferase, whose expression increases with STAT3 activity, and another plasmid carrying renilla luciferase, which is expressed independently of STAT3 activity. The transfected HCT116 cells were detached using 0.05% trypsin EDTA and seeded onto a 96-well test plate at a density of 1×10^4 cells per well. Cells were cultured in an incubator at 37[…] under 5% CO2 for 3 hrs, and then incubated with DMSO (1%) alone as a control and with the oxadiazole urea compound (dissolved in DMSO) at various concentrations (diluted 1/100).
# After 12 hrs or 24 hrs, STAT activity was assayed by adding two different substrates for firefly luciferase and renilla luciferase, beetle luciferin and coelenterazine, to the medium. The luminescence intensity by substrate degradation was measured using a luminometer (Wallac 1420). The measured firefly luciferase activity reflected STAT3 activity in a proportional manner. Renilla luciferase was used to calibrate non-specific cytotoxicity, occurring in each test group, and internal deviation.
# [2] = test system: colorectal carcinoma HCT116 cells; experiment: WST-1 growth inhibition assay, HCT116; assay type: cell-based; conditions: Homo sapiens, HCT-116, 24 hrs
# Experimental: (§1) The oxadiazole urea compound of the present invention was estimated for growth inhibitory activity against other human cancer cell lines in a WST-1 assay.
# (§2) Human cancer cell lines were cultured in 10% fetal bovine serum (FBS)-containing medium at 37[…] under 5% CO2, and detached using 0.05% trypsin-EDTA. Cells were seeded onto a 96-well plate at a density of 5×10^3 cells per well (for MDA-MB-231 and MDA-MB-468 breast cancer cells) or at a density of 7×10^3 cells per well (for colorectal carcinoma HCT116 and colon cancer SW620 cells).
# (§3) Then, cells were cultured in 10% FBS containing medium in an incubator at 37[…] under 5% CO2. After 24 hrs, the medium was exchanged with a medium containing 0.1% DMSO (as a control), or with media containing the oxadiazole urea compound at various concentrations (the compound dissolved in DMSO was diluted in medium), and cells were further cultured for 24 hrs. 10 μl of WST-1 Reagent (Roche) was added to each well, and the plate was incubated for 2 hrs. Absorbance was measured at 450 nm using an ELISA reader (Bio-Rad).
# [3] = test system: MDA-MB-468 breast cancer cells; experiment: WST-1 growth inhibition assay, MDA-MB-468; assay type: cell-based; conditions: Homo sapiens, MDA-MB-468 cells, 24 hrs
# Experimental: as §1, §2, §3
# [4] = test system: colon cancer SW620 cells; experiment: WST-1 growth inhibition assay, SW620; assay type: cell-based; conditions: Homo sapiens, SW-620, 24 hrs
# Experimental: as §1, §2, §3
# [5] = test system: MDA-MB-231 breast cancer cells; experiment: WST-1 growth inhibition assay, MDA-MB-231; assay type: cell-based, human; conditions: MDA-MB-231 cells, 24 hrs
# Experimental: as §1, §2, §3
# [6] = test system: SD rats; experiment: acute toxicity test on oral application in rats; assay type: in vivo; conditions: single oral dose of 1 g/kg/ml
# Experimental: An acute toxicity test was conducted with 6-week-old specific pathogen-free (SPF) SD rats. The present compound was suspended in injectable distilled water, and orally administered to two SD rats per group at a single dose of 1 g/kg/ml. […] After autopsy, abnormalities of abdominal and thoracic organs were visually observed.
# [7] = solubility in solvents; assay type: physicochemical
# T1 sequence (P40763 whole entry): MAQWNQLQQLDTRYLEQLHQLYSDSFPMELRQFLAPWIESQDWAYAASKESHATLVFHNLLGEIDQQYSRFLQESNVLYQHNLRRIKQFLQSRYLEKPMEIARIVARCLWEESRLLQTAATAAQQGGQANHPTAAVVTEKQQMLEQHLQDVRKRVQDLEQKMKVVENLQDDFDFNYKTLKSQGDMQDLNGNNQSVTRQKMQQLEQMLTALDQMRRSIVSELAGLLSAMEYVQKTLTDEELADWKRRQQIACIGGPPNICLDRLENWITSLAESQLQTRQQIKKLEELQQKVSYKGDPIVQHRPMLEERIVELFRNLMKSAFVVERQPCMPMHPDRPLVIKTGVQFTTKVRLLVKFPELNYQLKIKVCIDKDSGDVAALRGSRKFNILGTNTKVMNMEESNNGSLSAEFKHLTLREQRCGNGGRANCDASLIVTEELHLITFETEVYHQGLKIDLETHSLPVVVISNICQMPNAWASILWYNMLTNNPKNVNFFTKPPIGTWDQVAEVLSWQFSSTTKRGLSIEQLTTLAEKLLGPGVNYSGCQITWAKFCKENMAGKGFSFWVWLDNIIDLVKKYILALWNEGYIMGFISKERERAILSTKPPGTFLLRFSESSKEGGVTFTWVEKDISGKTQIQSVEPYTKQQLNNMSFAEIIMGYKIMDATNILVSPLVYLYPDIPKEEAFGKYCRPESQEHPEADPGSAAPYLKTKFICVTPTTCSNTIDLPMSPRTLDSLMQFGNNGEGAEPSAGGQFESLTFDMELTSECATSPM
compound,measurement,setting,value
O=C(Nc1ccc(C(F)(F)F)cc1)Nc1nonc1-c1ccc(Cl)cc1 [compound of Chemical Formula 1],IC50,[1],2.5 to 3 µM
same,GI50,[2],15 µM
same,GI50,[3],40 µM
same,GI50,[4],70 µM
same,50% growth inhibition concentration,[5],≥ 100 μm
same,clinical symptoms,[6],no special clinical symptoms
same,solubility in a nonpolar solvent,"[7]; nonpolar solvent, such as hexane",not dissolved
same,solubility in a polar solvent,"[7]; polar solvent, such as DMSO",well dissolved
